Test results taken from patent publication US9248108B2 (Ottawa Hospital Research Institute, priority 2012, dated 2016).
Like-named read-outs stand apart in the source and are kept apart here. Marks after values point to notes of the source that are not given here.

Assays:
[1] = tested on: oocytes of C57BL/6 (8 months) mice
Description: GV oocytes isolated from the ovaries of control mice were incubated for 17 h in αMEM. […] Metaphase II eggs following IVM were karyotyped and data expressed. Karyotype analyses were carried out by dual stains (anti-CREST and Sytox green) of metaphase II chromosomes. N: number of interpretable metaphase II karyotypes containing at least 18 dyads or the equivalent (e.g. 17 dyads plus 2 separated sister chromatids). Hypoploid: 18-19 dyads. Euploid: 20 dyads. Hyperploid: 21. PSSC: any karyotypes containing separated sister chromatid(s), with the total of at least 18 dyads or the equivalents. Aneuploid: 2×hyperploid+PSSC. Detailed breakdowns are in Table 14.
Mice were euthanized by cervical dislocation 44-46 h after they were primed with 5 IU equine chorionic gonadotropin (eCG) intraperitonally. […] Ovaries were immediately removed and minced in M2 medium (Sigma; unless otherwise indicated, other chemicals used in this study were also purchased from Sigma) to release oocytes. Oocytes with a clear germinal vesicle (GV) were used for in vitro maturation (IVM) for 17 hours in IVM medium (αMEM medium supplemented with 5% fetal bovine serum and 1 mM L-glutamine) overlaid with mineral oil.
Chromosome spread was carried out according to Hodges and Hunt (Hodges & Hunt, 2002) with minor modifications. In brief, oocytes or 2-cell embryos were collected in M2 medium. The zona pellucida was removed by treatment with 0.5 units/μl pronase at 37° C. for 20 sec. Zona-free oocytes/embryos were rinsed in M2 medium to detach polar bodies. The oocytes/embryos were individually plated onto glass slides (1-10 oocytes/embryos per slide) predipped in the fixative (prepared weekly and stored at 4° C.) containing 1% paraformaldehyde (w/v), 0.15% Triton X-100 (v/v), and 3 mM dithiothreitol, pH 9.2. Slides were kept overnight in moist boxes at room temperature. The slides were then rinsed in 0.5% Kodak Flo (Eastman Kodak Company, Rochester, N.Y.) solution and air-dried. The slides were incubated in 1:200 diluted human anti-centromere serum (Immunovision, Springdale, Ark.) in PBS containing 1% BSA overnight at 4° C., in 1:300 diluted secondary antibody (goat anti-human) conjugated with rhodamine (Jackson ImmunoResearch) in PBS-BSA for 1 h at room temperature, and 0.1% SYTOX green (Invitrogen, Eugene, Oreg.) in PBS for 30 min at room temperature. To avoid bias, the slides were coded by a colleague before being examined by an investigator using epifluorescence microscopy and photographed. Decoding was done after karyotypes were tabulated.

[2] = tested on: oocytes of very old (16 months) odc-/+ mice
Description: Table 12 Summary of two independent experiments. N: total numbers of oocytes in two experiments; GV: oocytes remained in prophase I; MI, no germinal vesicle and no polar body seen (used for spindle examination); PB1, oocytes with first polar body; Fragmented: abnormal cleavage likely due to parthenogenetic activation. * one MI oocyte was lost during handling.

9-month-old CF1 mice = tested on: 9-month-old CF1 mice
Description: Four (4) days later, the female mice are caged individually with fertile males (1:1) overnight. The females were examined in the morning for the presence of a vaginal plug (indicative of mating) and “plugged” females are considered E0 and separated from the males. Mice without a plug were continued mating until a plug was seen, or for up to a total of 4 days (average length of a mouse estrus cycle). Mice were sacrificed on E12 (“unplugged” mice were also sacrificed, taking the next morning following the 4-day-mating as E0) and their uterine horns inspected for normal embryos and dead embryos (resorption).

ovarian polyamines = experiment: Ovarian polyamine quantification by ion chromatography; type: in vivo, mouse; conditions: older mice, 1% putrescine in drinking water for several days
Description: A Dionex ion chromatography system was used to analyze polyamines during ovulation. This system employs an online conductivity detector coupled with an anion suppressor such that only cations are detected. Ovaries were extracted in 5% trichloric acid (TCA) followed by extraction with diethyl ether. The TCA extracts were diluted in water before being applied to the ion chromatography system.
(§1) Polyamines from ovarian samples were determined by ion chromatography (IC) system (Rey and Pohl, 2003. J. Chromatography A 997:199-206). Ovaries were collected immediately after animal sacrifice and stored at −80° C. until use. The samples were thawed and minced, and then 5% trichloroacetic acid (TCA) was added (20 μl/mg). The samples were ultra-sonicated 30 seconds thrice. After centrifugation, the supernatants were extracted twice with diethyl ether. The mouse blood was collected in a tube containing 1 iu/ml heparin (LEO). After centrifugation, the supernatant (plasma) was collected and 10% TCA was added by 1:1 in volume. These plasma samples were extracted twice with diethyl ether, as noted above. The extracts were diluted 10 times in water for polyamine analysis on Dionex Ion ICS-2100 system (Thermo scientific, Dionex, Sunnyvale, Calif., USA) according to the manufacture instructions, using the support software of PeakNet 6.40 SP5 Build 778.

in vivo = conditions: mouse, plasma
Description: as §1

[3] = 1 mM putrescine in drinking water, stated by Penderville H. et al; cited from earlier work
[4] = number of MII eggs, 1% putrescine drinking water one week, IVM with 5 mM putrescine

With `NCCCCN` [Putrescine, putrescine] as the molecule, how does the “% Hyperploidy” value ([1]; 1% putrescine drinking water one week, IVM with 5 mM putrescine) read?
Its value is 0%.

What about the “% Aneuploidy” value ([1]; Aneuploid: 2×hyperploid+PSSC, 1% putrescine drinking water one week, IVM with 5 mM putrescine) of the same molecule?
The value was 5.3%.

And the “Euploid 20” value [1, 4]?
Its value is 83.

What about the “Hyperploid 21” value [1, 4] of the same molecule?
The value was 0.

And the “Hyperploid 22” value [1, 4]?
Its value is 0.

And the “Hypoploid 19” value [1, 4]?
The value was 21.

And the PSSC [1, 4]?
Its PSSC is 6.

What about the “Hypoploid 18” value ([1]; number of MII eggs, 1% putrescine drinking water one week, then 17 h IVM with 5 mM putrescine) of the same molecule?
The value was 4.

And the Hyperploid ([1]; number of eggs per experiment date (breakdown of Table 13))?
The Hyperploid was 0.

And the “number of fully grown GV oocytes in the ovaries” value ([1]; putrescine in drinking water, n=13)?
Its value is 25.3 /mouse.

And the “Normal MI spindle” value ([2]; normal/examined MI oocytes)?
Its value is 19/20*.

What about the dead ([2]; number of oocytes) of the same molecule?
Its dead is 1.

What about the GV ([2]; number of oocytes remained in prophase I, two experiments) of the same molecule?
Its GV is 6.

What about the fragmented ([2]; number of oocytes with abnormal cleavage) of the same molecule?
Its fragmented is 0.

What about the PB1 ([2]; number of oocytes with first polar body) of the same molecule?
The PB1 was 2.

What about the MI ([2]; number of oocytes, no germinal vesicle and no polar body) of the same molecule?
Its MI is 21.

And the Total implants (9-month-old CF1 mice; E12)?
The Total implants was 300.

What about the Total normal fetuses (9-month-old CF1 mice; E12) of the same molecule?
The Total normal fetuses was 282.

What about the Total resorption sites (9-month-old CF1 mice; E12) of the same molecule?
Its Total resorption sites is 18.

What about the “Total normal fetuses/total animals” value (9-month-old CF1 mice; E12, as fraction) of the same molecule?
Its value is 282/29.

What about the “Total normal fetuses/total pregnancies” value (9-month-old CF1 mice; E12, as fraction) of the same molecule?
Its value is 282/24.

And the “Total resorption sites/total animals” value (9-month-old CF1 mice; E12, as fraction)?
The value was 18/29.

And the “Total resorption sites/total implants” value (9-month-old CF1 mice; E12, as fraction)?
The value was 18/300.

What about the “Total resorption sites/total pregnancies” value (9-month-old CF1 mice; E12, as fraction) of the same molecule?
Its value is 18/24.

And the “Total normal fetuses/total animals” value (9-month-old CF1 mice; E12, quotient)?
Its value is “(9.27)”.

And the “Total normal fetuses/total pregnancies” value (9-month-old CF1 mice; E12, quotient)?
The value was “(11.75)”.

What about the “Total resorption sites/total animals” value (9-month-old CF1 mice; E12, quotient) of the same molecule?
The value was “(0.62)”.

What about the Total pregnancy (9-month-old CF1 mice; number of mice, 1% putrescine in drinking water) of the same molecule?
The Total pregnancy was 24.

And the Plug observed (9-month-old CF1 mice; number of mice, 1% putrescine in drinking water 5-8 days up to plug)?
Its Plug observed is 25.

What about the Plug pregnancy (9-month-old CF1 mice; percent of plugged mice) of the same molecule?
The Plug pregnancy was “(92.00%)”.

What about the Unplug pregnancy (9-month-old CF1 mice; percent of unplugged mice) of the same molecule?
The Unplug pregnancy was “(25.00%)”.

And the Plug pregnancy (9-month-old CF1 mice; pregnant/plugged mice)?
The Plug pregnancy was 23/25.

And the Unplug pregnancy (9-month-old CF1 mice; pregnant/unplugged mice)?
The Unplug pregnancy was 1/4.

What about the “levels of ovarian spermidine and spermine” value (ovarian polyamines) of the same molecule?
Its value is “remained unchanged”.

And the “levels of ovarian putrescine compared to control mice” value (ovarian polyamines; before or 5 h after hCG)?
Its value is “appreciably higher”.

What about the concentration at 20 min (in vivo; sc) of the same molecule?
Its concentration at 20 min is 42 µM.

And the concentration at 40 min (in vivo; subcutaneous)?
The concentration at 40 min was 16 µM.

What about the concentration at 60 min (in vivo; subcutaneous) of the same molecule?
The concentration at 60 min was 8 µM.

What about the fetal toxicity [3] of the same molecule?
Its fetal toxicity is “fetal toxicity was found”.
